Measured values published in PubChem BioAssay AID1963864 (Molecular Pharmacology Branch, DTP, NCI, 2024).

System: KRAS PDC multicell spheroid viability
Experiment: Anticancer human tumor 521955-158-R6-J3-PDC patient-derived pancreatic carcinoma cell line growth inhibition [KRAS2]
Conditions: for IC50: curve of first compound; for viability, T/C: stronger effect = lower value
In short: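 KRAS-mutant tumor cells were grown as spheroids with HUVEC endothelial cells and human MSCs as stroma. Targeted agents were tested alone and with KRAS pathway inhibitors. Doses started at or near clinical Cmax, or 10 microM, descending half-log.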

[1] = second compound 0.1 µM, first compound 0.0316 µM
[2] = second compound 0.1 µM, first compound 0.1 µM
[3] = second compound 0.1 µM, first compound 0.316 µM
[4] = second compound 0.1 µM, first compound 1 µM
[5] = second compound 0.1 µM, first compound 3.16 µM
[6] = second compound 0.1 µM, first compound 10 µM
[7] = second compound 0.316 µM, first compound 0.0316 µM
[8] = second compound 0.316 µM, first compound 0.1 µM
[9] = second compound 0.316 µM, first compound 0.316 µM
[10] = second compound 0.316 µM, first compound 1 µM
[11] = second compound 0.316 µM, first compound 3.16 µM
[12] = second compound 0.316 µM, first compound 10 µM
[13] = second compound 1 µM, first compound 0.0316 µM
[14] = second compound 1 µM, first compound 0.1 µM
[15] = second compound 1 µM, first compound 0.316 µM
[16] = second compound 1 µM, first compound 1 µM
[17] = second compound 1 µM, first compound 3.16 µM
[18] = second compound 1 µM, first compound 10 µM
[19] = second compound 3.16 µM, first compound 0.0316 µM
[20] = second compound 3.16 µM, first compound 0.1 µM
[21] = second compound 3.16 µM, first compound 0.316 µM
[22] = second compound 3.16 µM, first compound 1 µM
[23] = second compound 3.16 µM, first compound 3.16 µM
[24] = second compound 3.16 µM, first compound 10 µM
[25] = second compound 10 µM, first compound 0.0316 µM
[26] = second compound 10 µM, first compound 0.1 µM
[27] = second compound 10 µM, first compound 0.316 µM
[28] = second compound 10 µM, first compound 1 µM
[29] = second compound 10 µM, first compound 3.16 µM
[30] = second compound 10 µM, first compound 10 µM
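Note: drug exposure lasted seven days.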
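Throughout, for viability, T/C: 100% = DMSO vehicle wells and lower means fewer viable cells.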

Compound	IC50 (second compound 0.1 µM) [µM]	IC50 (second compound 0.316 µM) [µM]	IC50 (second compound 1 µM) [µM]	IC50 (second compound 3.16 µM) [µM]	IC50 (second compound 10 µM) [µM]	viability, T/C [1] [%]	viability, T/C [2] [%]	viability, T/C [3] [%]	viability, T/C [4] [%]	viability, T/C [5] [%]	viability, T/C [6] [%]	viability, T/C [7] [%]	viability, T/C [8] [%]	viability, T/C [9] [%]	viability, T/C [10] [%]	viability, T/C [11] [%]	viability, T/C [12] [%]	viability, T/C [13] [%]	viability, T/C [14] [%]	viability, T/C [15] [%]	further results
COc1cc(Nc2ncc3c(n2)-c2ccc(Cl)cc2C(c2c(F)cccc2OC)=NC3)ccc1C(=O)O + CC1OCC2(CCN(c3cnc(Sc4ccnc(N)c4Cl)c(N)n3)CC2)C1N	> 10	> 10	> 10	> 10	> 10	101	101	99.8	82.2	99.8	95.8	97.1	95.1	95.6	86.6	81.3	87.9	102	98.5	88.1	viability, T/C [16]: 91.7%; viability, T/C [17]: 90.9%; viability, T/C [18]: 98%; viability, T/C [19]: 103%; viability, T/C [20]: 105%; viability, T/C [21]: 97.9%; viability, T/C [22]: 103%; viability, T/C [23]: 104%; viability, T/C [24]: 93.4%; viability, T/C [25]: 113%; viability, T/C [26]: 101%; viability, T/C [27]: 103%; viability, T/C [28]: 96.5%; viability, T/C [29]: 103%; viability, T/C [30]: 91.5%
O=C(c1cc(Cc2n[nH]c(=O)c3ccccc23)ccc1F)N1CCN(C(=O)C2CC2)CC1 + CC1OCC2(CCN(c3cnc(Sc4ccnc(N)c4Cl)c(N)n3)CC2)C1N	> 10	> 10	> 10	> 10	> 10	83	79.6	75.8	69.6	73.5	84.1	83.8	85.8	84.1	74.8	66.2	69.5	75.8	78.2	81	viability, T/C [16]: 76%; viability, T/C [17]: 71.9%; viability, T/C [18]: 75.9%; viability, T/C [19]: 96%; viability, T/C [20]: 98.6%; viability, T/C [21]: 88%; viability, T/C [22]: 75.9%; viability, T/C [23]: 78.3%; viability, T/C [24]: 72.1%; viability, T/C [25]: 85.3%; viability, T/C [26]: 85.6%; viability, T/C [27]: 61.5%; viability, T/C [28]: 70.3%; viability, T/C [29]: 70.8%; viability, T/C [30]: 63.9%
